Assays:
physchem = details: octanol/water phosphate buffer, pH 7.4
Description: Octanol/water phosphate buffer partition coefficient, log D of compound at pH 7.4 by shake-flask method

[1] = Apparent permeability in MDCK-II cells; assay type: ADME, cell-based, Canis lupus familiaris; details: dog
[2] = molecular target: Tyrosine-protein kinase JAK1 (Homo sapiens, UniProt P23458)
[3] = molecular target: T1, Tyrosine-protein kinase JAK3 (Homo sapiens, UniProt P52333); experiment: Inhibition of recombinant human GST-tagged JAK3 catalytic domain (781 to 1124 residues) expressed in baculovirus expression system using FITC-KGGEEEEYFELVKK as substrate in presence of ATP at Km by microfluidic assay
T1 sequence (P52333 whole entry): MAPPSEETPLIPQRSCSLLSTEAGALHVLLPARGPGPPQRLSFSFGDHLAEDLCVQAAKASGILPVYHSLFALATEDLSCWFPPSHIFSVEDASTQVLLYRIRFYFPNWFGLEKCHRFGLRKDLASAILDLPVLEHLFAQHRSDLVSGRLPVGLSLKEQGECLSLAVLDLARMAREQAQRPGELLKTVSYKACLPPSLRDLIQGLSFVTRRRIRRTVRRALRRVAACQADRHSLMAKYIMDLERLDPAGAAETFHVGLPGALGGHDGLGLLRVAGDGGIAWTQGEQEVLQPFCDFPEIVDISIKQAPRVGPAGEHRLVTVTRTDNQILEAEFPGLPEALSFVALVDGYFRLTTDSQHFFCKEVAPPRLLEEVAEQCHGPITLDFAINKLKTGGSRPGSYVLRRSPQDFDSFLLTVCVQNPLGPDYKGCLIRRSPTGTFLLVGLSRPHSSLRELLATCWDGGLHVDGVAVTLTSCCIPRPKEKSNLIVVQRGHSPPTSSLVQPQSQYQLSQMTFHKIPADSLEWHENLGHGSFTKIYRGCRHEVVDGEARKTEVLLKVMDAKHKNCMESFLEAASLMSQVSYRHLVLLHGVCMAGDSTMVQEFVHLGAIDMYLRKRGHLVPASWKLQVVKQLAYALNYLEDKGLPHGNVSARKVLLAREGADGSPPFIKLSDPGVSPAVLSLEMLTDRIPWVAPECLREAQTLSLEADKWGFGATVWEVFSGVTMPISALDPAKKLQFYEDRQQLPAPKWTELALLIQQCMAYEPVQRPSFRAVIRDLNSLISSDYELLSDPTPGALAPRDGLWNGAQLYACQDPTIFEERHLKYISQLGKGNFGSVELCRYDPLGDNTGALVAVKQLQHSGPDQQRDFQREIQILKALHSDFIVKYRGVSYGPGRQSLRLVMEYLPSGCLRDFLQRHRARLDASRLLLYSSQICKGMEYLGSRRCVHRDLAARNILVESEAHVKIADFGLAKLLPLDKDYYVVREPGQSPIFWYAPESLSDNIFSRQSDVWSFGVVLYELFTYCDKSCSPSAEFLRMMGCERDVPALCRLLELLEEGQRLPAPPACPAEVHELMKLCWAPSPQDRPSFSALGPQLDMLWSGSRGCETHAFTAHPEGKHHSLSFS

[4] = molecular target: T2, Tyrosine-protein kinase JAK2 (Homo sapiens, UniProt O60674); experiment: Inhibition of recombinant human GST-tagged JAK2 catalytic domain (809 to 1153+9 residues) expressed in baculovirus expression system using FITC-KGGEEEEYFELVKK as substrate in presence of ATP at Km by microfluidic assay
[5] = molecular target: Non-receptor tyrosine-protein kinase TYK2 (Homo sapiens, UniProt P29597); experiment: biochemical
[6] = Clearance in human liver microsomes assessed per mg protein; assay type: ADME, Microsome; details: read-out: CLH
[7] = Fraction unbound in human plasma; assay type: ADME, cell-free
[8] = Apparent clearance in human hepatocytes assessed per million cells; assay type: ADME, cell-based, Hepatocyte; details: read-out: CLH
Homo sapiens = species on record: Homo sapiens; experiment: Selectivity ratio of IC50 for recombinant human GST-tagged JAK2 catalytic domain (809 to 1153+9 residues) expressed in baculovirus expression system to IC50 for inhibition of recombinant human His-tagged TYK2 expressed in baculovirus infected Sf21 cells
TYK2/JAK2 (Homo sapiens) = details: Blood, time 60.0 min
[9] = molecular target: T2, Tyrosine-protein kinase JAK2; experiment: Inhibition of JAK2 homodimer signaling pathway in human whole blood spiked with CD34 +ve cells assessed as reduction in EPO induced STAT5 phosphorylation preincubated for 45 mins followed by EPO addition and measured measured after 15 mins by immunostaining based FACS assay; assay type: tissue-based

T2 sequence (O60674 whole entry, the tested form may be a part): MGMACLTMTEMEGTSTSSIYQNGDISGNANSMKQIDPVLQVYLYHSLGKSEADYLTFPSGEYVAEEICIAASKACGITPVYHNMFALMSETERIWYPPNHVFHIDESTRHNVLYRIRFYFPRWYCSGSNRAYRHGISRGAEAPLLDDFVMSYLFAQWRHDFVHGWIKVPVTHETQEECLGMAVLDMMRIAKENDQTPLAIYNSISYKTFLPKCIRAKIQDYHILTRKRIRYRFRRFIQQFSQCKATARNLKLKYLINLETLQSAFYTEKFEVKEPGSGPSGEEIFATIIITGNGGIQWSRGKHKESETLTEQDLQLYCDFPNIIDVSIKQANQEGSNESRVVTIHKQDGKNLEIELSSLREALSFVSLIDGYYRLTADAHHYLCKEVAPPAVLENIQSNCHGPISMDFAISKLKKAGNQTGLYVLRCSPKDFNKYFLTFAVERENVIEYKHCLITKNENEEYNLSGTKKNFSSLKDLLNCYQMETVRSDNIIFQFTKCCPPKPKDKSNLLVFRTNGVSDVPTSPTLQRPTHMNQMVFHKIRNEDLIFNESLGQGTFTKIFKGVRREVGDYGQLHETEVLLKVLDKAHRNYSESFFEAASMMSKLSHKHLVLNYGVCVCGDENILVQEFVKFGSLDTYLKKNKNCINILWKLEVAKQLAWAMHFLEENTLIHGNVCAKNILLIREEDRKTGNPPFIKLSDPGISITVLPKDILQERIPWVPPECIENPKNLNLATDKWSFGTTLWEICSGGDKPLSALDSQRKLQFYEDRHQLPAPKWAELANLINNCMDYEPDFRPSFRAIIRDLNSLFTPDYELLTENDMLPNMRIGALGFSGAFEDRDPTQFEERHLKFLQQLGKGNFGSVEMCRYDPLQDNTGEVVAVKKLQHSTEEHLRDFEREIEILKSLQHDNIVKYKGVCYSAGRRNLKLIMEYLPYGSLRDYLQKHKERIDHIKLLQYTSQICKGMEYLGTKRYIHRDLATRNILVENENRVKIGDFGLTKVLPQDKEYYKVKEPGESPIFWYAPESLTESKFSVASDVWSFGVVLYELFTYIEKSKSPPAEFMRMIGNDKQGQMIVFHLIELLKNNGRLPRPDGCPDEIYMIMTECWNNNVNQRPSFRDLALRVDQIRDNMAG
Sequence of Non-receptor tyrosine-protein kinase TYK2 (P29597 whole entry): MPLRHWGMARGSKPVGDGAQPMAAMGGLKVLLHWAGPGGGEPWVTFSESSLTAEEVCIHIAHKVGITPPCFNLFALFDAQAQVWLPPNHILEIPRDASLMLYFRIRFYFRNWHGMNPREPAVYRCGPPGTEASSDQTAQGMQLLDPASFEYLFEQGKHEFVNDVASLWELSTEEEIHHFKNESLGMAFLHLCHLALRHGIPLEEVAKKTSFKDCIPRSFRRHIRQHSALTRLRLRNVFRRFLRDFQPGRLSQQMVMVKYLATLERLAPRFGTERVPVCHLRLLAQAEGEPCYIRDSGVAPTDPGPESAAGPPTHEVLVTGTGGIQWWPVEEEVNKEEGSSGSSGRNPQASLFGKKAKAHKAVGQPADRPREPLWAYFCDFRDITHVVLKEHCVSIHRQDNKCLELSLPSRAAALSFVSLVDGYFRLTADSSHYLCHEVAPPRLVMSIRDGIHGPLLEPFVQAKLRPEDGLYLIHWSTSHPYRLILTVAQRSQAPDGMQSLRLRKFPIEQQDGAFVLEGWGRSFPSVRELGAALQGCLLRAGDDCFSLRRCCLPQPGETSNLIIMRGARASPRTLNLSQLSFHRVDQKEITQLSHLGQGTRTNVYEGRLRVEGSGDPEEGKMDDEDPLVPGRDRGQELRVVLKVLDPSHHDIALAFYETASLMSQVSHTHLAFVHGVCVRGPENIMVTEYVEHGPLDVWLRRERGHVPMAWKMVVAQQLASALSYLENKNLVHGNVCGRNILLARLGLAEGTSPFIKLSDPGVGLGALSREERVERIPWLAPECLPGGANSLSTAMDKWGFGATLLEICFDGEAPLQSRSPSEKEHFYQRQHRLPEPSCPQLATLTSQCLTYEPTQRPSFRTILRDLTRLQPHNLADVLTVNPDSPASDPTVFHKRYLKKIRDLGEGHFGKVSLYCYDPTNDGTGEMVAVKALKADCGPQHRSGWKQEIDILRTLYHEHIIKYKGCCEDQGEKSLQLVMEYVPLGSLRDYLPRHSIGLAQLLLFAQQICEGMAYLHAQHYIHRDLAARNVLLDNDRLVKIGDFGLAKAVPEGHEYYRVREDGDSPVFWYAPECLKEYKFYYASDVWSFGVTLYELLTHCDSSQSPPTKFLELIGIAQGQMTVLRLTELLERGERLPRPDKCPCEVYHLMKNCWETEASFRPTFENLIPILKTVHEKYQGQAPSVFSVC
Sequence of Tyrosine-protein kinase JAK1 (P23458 whole entry, the tested form may be a part): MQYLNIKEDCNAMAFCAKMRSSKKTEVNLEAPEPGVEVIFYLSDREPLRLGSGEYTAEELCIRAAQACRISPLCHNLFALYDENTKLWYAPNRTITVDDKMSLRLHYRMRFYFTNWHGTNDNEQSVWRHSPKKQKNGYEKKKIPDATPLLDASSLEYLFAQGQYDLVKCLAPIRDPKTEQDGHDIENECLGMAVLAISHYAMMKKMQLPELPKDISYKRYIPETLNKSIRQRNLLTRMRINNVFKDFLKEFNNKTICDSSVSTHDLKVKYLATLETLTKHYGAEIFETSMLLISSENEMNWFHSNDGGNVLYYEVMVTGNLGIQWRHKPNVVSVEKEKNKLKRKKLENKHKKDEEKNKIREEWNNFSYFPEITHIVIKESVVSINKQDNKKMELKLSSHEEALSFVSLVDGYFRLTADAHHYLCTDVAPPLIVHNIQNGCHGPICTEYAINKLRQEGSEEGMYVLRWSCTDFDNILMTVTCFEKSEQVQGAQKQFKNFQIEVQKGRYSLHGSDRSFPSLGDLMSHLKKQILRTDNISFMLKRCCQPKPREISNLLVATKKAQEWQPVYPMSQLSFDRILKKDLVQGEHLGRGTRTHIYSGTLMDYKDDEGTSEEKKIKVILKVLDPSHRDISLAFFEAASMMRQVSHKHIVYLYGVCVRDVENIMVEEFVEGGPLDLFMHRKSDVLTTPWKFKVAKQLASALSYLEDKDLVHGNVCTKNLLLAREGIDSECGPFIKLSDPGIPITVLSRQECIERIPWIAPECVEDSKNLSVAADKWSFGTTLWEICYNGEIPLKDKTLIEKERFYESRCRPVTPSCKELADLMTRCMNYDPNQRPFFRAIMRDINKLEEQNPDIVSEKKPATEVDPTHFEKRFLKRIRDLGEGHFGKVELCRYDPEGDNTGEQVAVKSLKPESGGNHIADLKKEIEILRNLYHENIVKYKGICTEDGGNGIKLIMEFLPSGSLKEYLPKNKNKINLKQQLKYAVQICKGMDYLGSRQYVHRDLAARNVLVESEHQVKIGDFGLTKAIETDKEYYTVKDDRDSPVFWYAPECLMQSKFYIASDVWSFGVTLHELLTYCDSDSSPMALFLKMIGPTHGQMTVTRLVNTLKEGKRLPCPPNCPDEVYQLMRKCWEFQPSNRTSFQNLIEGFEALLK

Row | SMILES | logD (physchem) | Papp [1] [×10⁻⁶ cm/s] | IC50 [2] [nM] | IC50 [3] [nM] | IC50 [4] [nM] | IC50 [5] [nM] | microsomal CLint [6] [µL/min/mg] | IC50 [9] [nM] | fraction unbound [7] | hepatocyte CLint [8] [µL/min/1e6 cells] | Ratio IC50 (Homo sapiens) | fIC50 (TYK2/JAK2 (Homo sapiens)) [nM]
1 | N#CC[C@]1(n2cc(-c3nc(-c4cn[nH]c4)cn4nccc34)cn2)C[C@@H](C#N)C1 | 1.6 | 6 | 22 | 2240 | 22 | 8 | 44 | – | – | – | – | –
2 | Cn1cc(-c2cc(-c3cnn(C4(CC#N)CN(CC(F)(F)F)C4)c3)n3ccnc3c2)cn1 | 2.1 | – | – | – | – | 290 | – | – | – | – | – | –
3 | CC(=O)N1CC(CC#N)(n2cc(-c3nc(-c4cnn(C)c4)cn4nccc34)cn2)C1 | 1.2 | 4 | 6110 | > 10000 | 1750 | 678 | < 8 | – | – | – | – | –
4 | N#CC[C@]1(n2cc(-c3nc(-c4cn[nH]c4)cn4nccc34)cn2)C[C@H](C#N)C1 | 1.7 | 7 | 398 | > 10000 | 280 | 44 | 19 | – | – | – | – | –
5 | N#CC[C@]1(n2cc(-c3nc(-c4cc[nH]n4)cn4nccc34)cn2)C[C@@H](C#N)C1 | 1.7 | 7 | 43 | 4450 | 31 | 9 | 20 | – | – | – | – | –
6 | Cn1cc(-c2cc(-c3cnn(C4(CC#N)CN(CC(F)(F)F)C4)c3)n3ncnc3c2)cn1 | 2.3 | – | – | – | – | 476 | – | – | – | – | – | –
7 | Cn1cc(-c2cn3nccc3c(-c3cnn(C4(CC#N)CN(CCO)C4)c3)n2)cn1 | 1.2 | 7 | 5580 | > 10000 | 1040 | 189 | < 8 | – | – | – | – | –
8 | Cn1ccc(-c2cn3nccc3c(-c3cnn([C@]4(CC#N)C[C@@H](C#N)C4)c3)n2)n1 | 1.6 | 20 | 2530 | > 10000 | 467 | 67 | < 8 | – | 0.2 | < 2 | 7 | 254
9 | Cn1cc(-c2cn3nccc3c(-c3cnn(C4(CC#N)CN(CC(F)(F)F)C4)c3)n2)cn1 | 2.5 | 18 | 358 | > 9850 | 65 | 10 | 18 | – | – | – | – | –
10 | N#CC[C@]1(n2cc(-c3nc(-c4cc[nH]n4)cn4nccc34)cn2)C[C@H](C#N)C1 | 1.7 | 17 | 284 | > 10000 | 172 | 26 | < 8 | – | 0.32 | 7 | 7 | 334
11 | Cn1cc(-c2cn3nccc3c(-c3cnn(C4(CC#N)CN(CC#N)C4)c3)n2)cn1 | 1.5 | 11 | – | – | – | – | < 8 | – | – | – | – | –
12 | Cn1cc(-c2cc(-c3cnn(C4(CC#N)CN(CC(F)(F)F)C4)c3)n3cnnc3c2)cn1 | 1.2 | – | – | – | – | > 10000 | – | – | – | – | – | –
13 | CCN1CC(CC#N)(n2cc(-c3nc(-c4cnn(C)c4)cn4nccc34)cn2)C1 | 2.1 | 33 | 2670 | > 10000 | 346 | 46 | 21 | – | – | – | – | –
14 | Cn1cc(-c2cn3nccc3c(-c3cnn(C4(CC#N)CN(CC5CC5)C4)c3)n2)cn1 | – | 27 | 933 | > 10000 | 187 | 40 | 30 | – | – | – | – | –

Further lines, with some results ahead:

Row | logD (physchem) | Papp [1] [×10⁻⁶ cm/s] | IC50 [2] [nM] | IC50 [3] [nM] | IC50 [4] [nM] | IC50 [5] [nM] | microsomal CLint [6] [µL/min/mg] | IC50 [9] [nM] | SMILES | fraction unbound [7] | hepatocyte CLint [8] [µL/min/1e6 cells] | Ratio IC50 (Homo sapiens) | fIC50 (TYK2/JAK2 (Homo sapiens)) [nM]
15 | 1.8 | 21 | – | – | – | – | 10 | – | Cn1cc(-c2cn3nccc3c(-c3cnn([C@]4(CC#N)C[C@H](CC#N)C4)c3)n2)cn1 | – | – | – | –
16 | 1.9 | 20 | – | – | – | – | 11 | – | Cn1cc(-c2cn3nccc3c(-c3cnn([C@]4(CC#N)C[C@@H](CC#N)C4)c3)n2)cn1 | – | – | – | –
17 | 1.8 | 15 | – | – | – | – | 17 | – | Cn1cc(-c2cn3nccc3c(-c3cnn([C@]4(CC#N)C[C@H](C#N)C4)c3)n2)cn1 | 0.34 | 12 | – | –
18 | 2.2 | 20 | – | > 10000 | – | – | 27 | – | CO[C@H]1C[C@@](CC#N)(n2cc(-c3nc(-c4cnn(C)c4)cn4nccc34)cn2)C1 | – | – | – | –
19 | 1.6 | 14 | 261 | > 9590 | 45 | 10 | 23 | – | Cn1ccc(-c2cn3nccc3c(-c3cnn([C@]4(CC#N)C[C@H](C#N)C4)c3)n2)n1 | – | – | – | –
20 | 2.3 | 22 | – | – | – | – | < 8 | 1100 | CO[C@H]1C[C@](CC#N)(n2cc(-c3nc(-c4cnn(C)c4)cn4nccc34)cn2)C1 | 0.3 | 6 | – | –
